Reference: PMC7897990, “TriTOX: A novel Trichomonas vaginalis assay platform for high-throughput screening of compound libraries” (International Journal for Parasitology: Drugs and Drug …, 2021)
Where two headings read alike, the source gives them in different places. Non-standard residues stand in square brackets, D forms with d. Residues, ends and D or L forms follow the SMILES beside them. Phe(ol) = N[C@H](CO)Cc1ccccc1; Aib = CC(C)(N)C(=O)O

Tests used:
[1] = test system: Trichomonas vaginalis G3 trophozoites; settings: for T.vaginalis_Absorbance_Rep1: replicate 1, raw absorbance; for T.vaginalis_Absorbance_Rep2: replicate 2, raw absorbance
[2] = test system: nontumorigenic neonatal foreskin fibroblast (NFF) cell line
[3] = parasite screen at 1 µg/mL, replicate 1
[4] = parasite screen at 1 µg/mL, replicate 2
[5] = NFF_NS1 screen at 5 µg/mL, NFF cells
[6] = HTS single concentration, parasite screen 1 µg/mL, replicate 1
[7] = HTS single concentration, parasite screen 1 µg/mL, replicate 2
[8] = NFF_NS1 screen 5 µg/mL, single concentration
[9] = HTS replicate 1, parasite screen 1 µg/mL
[10] = HTS replicate 2, parasite screen 1 µg/mL
[11] = NFF fibroblasts, single concentration 5 µg/mL
[12] = HTS, parasite screen at 1 µg/mL, replicate 1
[13] = HTS, parasite screen at 1 µg/mL
[14] = HTS, parasite screen at 1 µg/mL, replicate 2
[15] = replicate 1, parasite screen at 1 µg/mL
[16] = replicate 2, parasite screen at 1 µg/mL

## CN(C)[C@@H]1C(O)=C(C(=O)NCN2CCCC2)C(=O)[C@@]2(O)C(O)=C3C(=O)c4c(O)cccc4[C@@](C)(O)[C@H]3C[C@@H]12 [BIA-R1460]
[1]; [3]
  T.vaginalis_%inb_Rep1: 13.95%
[1]; [4]
  T.vaginalis_%inb_Rep2: 12.12%
[2]; [5]
  NFF_Activity: I (otherwise these were reported as inactive (I))

## COc1oc([C@H]2C/C(=C/C(C)=C/c3ccc([N+](=O)[O-])cc3)CO2)c(C)c(=O)c1C [BIA-A1009]
[1]; [6]
  T.vaginalis_%inb_Rep1: 12.82%
[1]; [7]
  T.vaginalis_%inb_Rep2: 5.78%
[2]; [8]
  NFF_Activity: I (otherwise these were reported as inactive (I))

## O=C(O)CC[N+](=O)[O-] [Nitropropionic acid, 3-]
[1]; [9]
  T.vaginalis_%inb_Rep1: 18.00%
[1]; [10]
  T.vaginalis_%inb_Rep2: 11.87%
[2]; [11]
  NFF_Activity: I (otherwise these were reported as inactive (I))

## COc1c(O)c2c(=O)cc3c4c5c(cc(=O)c6c(O)c(OC)c(C[C@H](C)OC(C)=O)c(c(c1C[C@H](C)OC(C)=O)c24)c65)OCO3 [Diacetylcercosporin]
[1]; [12]
  T.vaginalis_%inb_Rep1: 12.65%
[1]; [13]
  T.vaginalis_Absorbance_Rep1: 0.944
  T.vaginalis_Absorbance_Rep2: 0.821
[1]; [14]
  T.vaginalis_%inb_Rep2: 14.53%
[2]; NFF_NS1 screen at 5 µg/mL
  NFF_Activity: A (active (A) compounds having >25% inhibitory activity)

## CC(C)C[C@H](NC(=O)[C@@H](O)[C@H](N)Cc1ccccc1)C(=O)O [BIA-B1278]
[1]; [6]
  T.vaginalis_%inb_Rep1: 14.49%
[1]; [7]
  T.vaginalis_%inb_Rep2: 15.84%
[2]; [8]
  NFF_Activity: I (otherwise these were reported as inactive (I))

## CC(=O)NCCc1ccc(O)cc1 [BIA-A1731]
[1]; [6]
  T.vaginalis_%inb_Rep1: 13.35%
[1]; [7]
  T.vaginalis_%inb_Rep2: 10.05%
[2]; [8]
  NFF_Activity: I (otherwise these were reported as inactive (I))

## C=CC1(C)CC(OC(=O)CSC2CC3CCC(C2)N3C)C2(C)C(C)CCC3(CCC(=O)C32)C(C)C1O (stereo not drawn) [BIA-R1491]
[1]; [3]
  T.vaginalis_%inb_Rep1: 10.45%
[1]; [4]
  T.vaginalis_%inb_Rep2: 11.55%
[2]; [5]
  NFF_Activity: I (otherwise these were reported as inactive (I))

## CO[C@H]1C[C@H](O[C@H]2[C@H](C)O[C@@H](O[C@@H]3/C(C)=C/C[C@@H]4C[C@@H](C[C@]5(C=C[C@H](C)[C@@H](C(C)C)O5)O4)OC(=O)[C@@H]4C=C(C)[C@@H](O)[C@H]5OC/C(=C\C=C\[C@@H]3C)[C@]54O)C[C@@H]2OC)O[C@@H](C)[C@@H]1O [BIA-A1011]
[1]; [6]
  T.vaginalis_%inb_Rep1: 14.65%
[1]; [7]
  T.vaginalis_%inb_Rep2: 18.51%
[2]; [8]
  NFF_Activity: I (otherwise these were reported as inactive (I))

## COc1c(O)cc2cc(C)oc(=O)c2c1O [BIA-R1077]
[1]; [3]
  T.vaginalis_%inb_Rep1: 14.76%
[1]; [4]
  T.vaginalis_%inb_Rep2: 13.92%
[2]; [5]
  NFF_Activity: I (otherwise these were reported as inactive (I))

## CC[C@]1(C)C[C@@H](OC(=O)CSc2n[nH]c(N)n2)[C@]2(C)[C@H](C)CC[C@]3(CCC(=O)[C@H]32)[C@@H](C)[C@@H]1O [BIA-A1489]
[1]; [6]
  T.vaginalis_%inb_Rep1: 14.65%
[1]; [7]
  T.vaginalis_%inb_Rep2: 19.67%
[2]; [8]
  NFF_Activity: I (otherwise these were reported as inactive (I))

## O=c1cc(O)c1=O [Moniliformin]
[1]; [9]
  T.vaginalis_%inb_Rep1: 8.57%
[1]; [10]
  T.vaginalis_%inb_Rep2: 12.25%
[2]; [11]
  NFF_Activity: I (otherwise these were reported as inactive (I))

## CC(=O)NC(C)(C)C(=O)N1CCC[C@H]1C(=O)NC(C)(C)C(=O)N[C@@H](C)C(=O)NC(C)(C)C(=O)N[C@@H](C)C(=O)N[C@@H](CCC(N)=O)C(=O)NC(C)(C)C(=O)N[C@H](C(=O)NC(C)(C)C(=O)NCC(=O)N[C@@H](CC(C)C)C(=O)NC(C)(C)C(=O)N1CCC[C@H]1C(=O)N[C@H](C(=O)NC(C)(C)C(=O)NC(C)(C)C(=O)N[C@@H](CCC(N)=O)C(=O)N[C@@H](CCC(N)=O)C(=O)N[C@H](CO)Cc1ccccc1)C(C)C)C(C)C [BIA-A1543] (Ac-[Aib]P[Aib]A[Aib]AQ[Aib]V[Aib]GL[Aib]PV[Aib][Aib]QQ[Phe(ol)])
[1]; [6]
  T.vaginalis_%inb_Rep1: 13.73%
[1]; [7]
  T.vaginalis_%inb_Rep2: 13.74%
[2]; [8]
  NFF_Activity: I (otherwise these were reported as inactive (I))

## CC[C@@H](C)/C=C(C)/C=C/C(=O)c1c(O)c(-c2ccc(O)cc2)cn(O)c1=O [BIA-T1566]
[1]; [3]
  T.vaginalis_%inb_Rep1: 8.55%
[1]; [4]
  T.vaginalis_%inb_Rep2: 14.93%
[2]; [5]
  NFF_Activity: I (otherwise these were reported as inactive (I))

## COC1C=CC=C(C)C(=O)NC2=CC(=O)C=C(C2=O)C(OC)C(C)CC(OC)C(OC)C(C)C=C(C)C1OC(N)=O (stereo not drawn) [BIA-H1036]
[1]; [15]
  T.vaginalis_%inb_Rep1: 12.63%
[1]; [16]
  T.vaginalis_%inb_Rep2: 12.64%
[2]; NFF cells, screen at 5 µg/mL
  NFF_Activity: I (otherwise these were reported as inactive (I))

## O=C(O)c1cccc2nc3ccccc3nc12 [Tubermycin B]
[1]; [12]
  T.vaginalis_%inb_Rep1: 8.13%
[1]; [14]
  T.vaginalis_%inb_Rep2: 16.27%
[2]; NFF fibroblast screen at 5 µg/mL, A = active, I = inactive
  NFF_Activity: I (otherwise these were reported as inactive (I))

## Oc1cccc2nc3ccccc3nc12 [BIA-H1520]
[1]; [15]
  T.vaginalis_%inb_Rep1: 9.69%
[1]; [16]
  T.vaginalis_%inb_Rep2: 12.89%
[2]; NFF cells, screen at 5 µg/mL
  NFF_Activity: I (otherwise these were reported as inactive (I))

## Cc1cc(OC(=O)c2c(C)cc(O)cc2O)cc(O)c1C(=O)O [BIA-L1669]
[1]; [15]
  T.vaginalis_%inb_Rep1: 11.51%
[1]; [16]
  T.vaginalis_%inb_Rep2: 3.53%
[2]; NFF cells, screen at 5 µg/mL
  NFF_Activity: I (otherwise these were reported as inactive (I))

## CCCC[C@@H](C)[C@@H](OC(=O)C[C@@H](CC(=O)O)C(=O)O)[C@H](C[C@@H](C)C[C@H](O)CCCC[C@@H](O)C[C@H](O)[C@H](C)N)OC(=O)C[C@@H](CC(=O)O)C(=O)O [Fumonisin B1]
[1]; [12]
  T.vaginalis_%inb_Rep1: 12.98%
[1]; [13]
  T.vaginalis_Absorbance_Rep1: 0.958
  T.vaginalis_Absorbance_Rep2: 0.854
[1]; [14]
  T.vaginalis_%inb_Rep2: 14.05%
[2]; NFF_NS1 screen at 5 µg/mL
  NFF_Activity: I (otherwise these were reported as inactive (I))

## CCC(=O)CCCCCC1NC(=O)C2CCCCN2C(=O)C(C(C)CC)NC(=O)C(Cc2cn(OC)c3ccccc23)NC1=O (stereo not drawn) [BIA-A1006]
[1]; [6]
  T.vaginalis_%inb_Rep1: 13.25%
[1]; [7]
  T.vaginalis_%inb_Rep2: 17.28%
[2]; [8]
  NFF_Activity: I (otherwise these were reported as inactive (I))

## C=C(C)[C@@H]1CC[C@]2(C(=O)O)CC[C@]3(C)[C@H](CC[C@@H]4[C@@]5(C)CC[C@H](O)C(C)(C)[C@@H]5CC[C@]43C)[C@@H]12 [BIA-B1758]
[1]; [6]
  T.vaginalis_%inb_Rep1: 14.81%
[1]; [7]
  T.vaginalis_%inb_Rep2: 7.30%
[2]; [8]
  NFF_Activity: I (otherwise these were reported as inactive (I))

## CC[C@H](C)[C@H]1O[C@]2(C=C[C@@H]1C)C[C@@H]1C[C@@H](C/C=C(\C)[C@@H](O)[C@@H](C)/C=C/C=C3\CO[C@@H]4[C@H](O)C(C)=C[C@@H](C(=O)O1)[C@]34O)O2 [BIA-A1587]
[1]; [6]
  T.vaginalis_%inb_Rep1: 13.62%
[1]; [7]
  T.vaginalis_%inb_Rep2: 16.27%
[2]; [8]
  NFF_Activity: I (otherwise these were reported as inactive (I))

## CC[C@H](C)[C@H]1O[C@]2(C=C[C@@H]1C)C[C@@H]1C[C@@H](C/C=C(\C)[C@@H](O[C@H]3C[C@H](OC)[C@@H](O[C@H]4C[C@H](OC)[C@H](NC)[C@H](C)O4)[C@H](C)O3)[C@@H](C)/C=C/C=C3\CO[C@@H]4[C@H](O)C(C)=C[C@@H](C(=O)O1)[C@]34O)O2 [Emamectin B1a]
[1]; [12]
  T.vaginalis_%inb_Rep1: 15.19%
[1]; [13]
  T.vaginalis_Absorbance_Rep1: 0.991
  T.vaginalis_Absorbance_Rep2: 0.699
[1]; [14]
  T.vaginalis_%inb_Rep2: 5.71%
[2]; NFF_NS1 screen at 5 µg/mL
  NFF_Activity: A (active (A) compounds having >25% inhibitory activity)

## CCC(C(=O)C(C)C(O)C(C)CCc1ccc(C)c(O)c1C(=O)O)C1OC(CC)(C2CCC(O)(CC)C(C)O2)CC1C (stereo not drawn) [BIA-L1533]
[1]; [15]
  T.vaginalis_%inb_Rep1: 11.71%
[1]; [16]
  T.vaginalis_%inb_Rep2: 10.90%
[2]; NFF cells, screen at 5 µg/mL
  NFF_Activity: I (otherwise these were reported as inactive (I))

## COC(=O)C1(O)CC2OC1(C)n1c3ccccc3c3c4c(c5c6ccccc6n2c5c31)C(=O)NC4 (stereo not drawn) [BIA-K1225]
[1]; [15]
  T.vaginalis_%inb_Rep1: 61.16%
[1]; [16]
  T.vaginalis_%inb_Rep2: 66.84%
[2]; NFF cells, screen at 5 µg/mL
  NFF_Activity: A (active (A) compounds having >25% inhibitory activity)

## O=C1CCCC2C3CC(CN12)C1CC(O)CCN1C3 (stereo not drawn) [BIA-H1961]
[1]; [15]
  T.vaginalis_%inb_Rep1: 9.18%
[1]; [16]
  T.vaginalis_%inb_Rep2: 14.99%
[2]; NFF cells, screen at 5 µg/mL
  NFF_Activity: I (otherwise these were reported as inactive (I))

## Nc1ncnc2c1ncn2[C@@H]1O[C@H](C[C@@H](N)CC[C@H](N)C(=O)O)[C@@H](O)[C@H]1O [BIA-S1376]
[1]; [3]
  T.vaginalis_%inb_Rep1: 11.43%
[1]; [4]
  T.vaginalis_%inb_Rep2: 25.29%
[2]; [5]
  NFF_Activity: I (otherwise these were reported as inactive (I))

## CC[C@H]1/C=C/C=C/C[C@@H](C)[C@H](O)[C@@](C)(O)C(=O)[C@@H](C)[C@H](O)[C@@H](C)C(=O)[C@@H](C)[C@H](O)[C@@H](C)/C=C/C(=O)O[C@@H]2[C@H](C)[C@H](CC1)O[C@@]1(O[C@@H](C[C@@H](C)O)[C@@H](C)CC1=O)[C@H]2C [Oligomycin B]
[1]; [9]
  T.vaginalis_%inb_Rep1: 12.98%
[1]; [10]
  T.vaginalis_%inb_Rep2: 13.09%
[2]; [11]
  NFF_Activity: I (otherwise these were reported as inactive (I))
